The target of the first data set is T1, Nuclear factor erythroid 2-related factor 2 (Homo sapiens) (UniProt Q16236).
T1 sequence (whole entry): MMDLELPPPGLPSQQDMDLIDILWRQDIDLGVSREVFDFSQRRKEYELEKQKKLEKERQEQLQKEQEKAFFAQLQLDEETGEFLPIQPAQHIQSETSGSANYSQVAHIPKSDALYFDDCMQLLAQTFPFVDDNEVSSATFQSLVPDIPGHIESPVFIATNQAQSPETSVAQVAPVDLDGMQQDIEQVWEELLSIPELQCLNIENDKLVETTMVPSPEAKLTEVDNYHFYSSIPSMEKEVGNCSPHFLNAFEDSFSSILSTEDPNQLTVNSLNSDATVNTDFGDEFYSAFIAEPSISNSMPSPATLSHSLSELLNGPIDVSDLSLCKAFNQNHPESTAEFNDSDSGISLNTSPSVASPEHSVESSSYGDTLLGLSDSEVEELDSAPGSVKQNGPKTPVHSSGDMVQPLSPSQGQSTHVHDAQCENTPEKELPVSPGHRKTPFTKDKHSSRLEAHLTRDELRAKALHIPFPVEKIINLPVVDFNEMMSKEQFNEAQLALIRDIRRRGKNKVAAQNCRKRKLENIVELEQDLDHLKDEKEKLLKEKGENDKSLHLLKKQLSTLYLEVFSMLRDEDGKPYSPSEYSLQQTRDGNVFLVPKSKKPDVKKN
Put plainly: Activation of Nrf2 (unknown origin) expressed in human HepG2 cells at 2.5 to 20 uM incubated for 6 hrs by ARE-driven luciferase reporter gene assay. Format: cell-based.
Details: not given
A general note: Reporter assays use an easily measured gene product as a stand-in for the process of interest.
Regarding `C=CC(C)(C)c1cc(/C=C/C(=O)c2ccc(O)cc2)c(OC)c(O)c1O`, the Activity entry was “Dose-dependent effect”. As for `CC(C)=CCc1c(O)ccc(-c2cc3ccc(O)cc3o2)c1O` [2'-O-DEMETHYLBIDWILLOL B], the Activity entry is “Dose-dependent effect”. For `COc1c(/C=C/C(=O)c2ccc(O)c(CC=C(C)C)c2)ccc(O)c1O` [LICOCHALCONE D], the Activity result was “Dose-dependent effect”.

Another data set relates to HepG2. Kind of data set: Cytotoxicity in human HepG2 cells expressing Nrf2/ARE-driven luciferase at 10 to 40 uM incubated for 6 hrs. In kind it is cell-based. The settings on record: hepg2, 6 h.
Take `COc1c(/C=C/C(=O)c2ccc(O)cc2)cc(CC=C(C)C)c(O)c1O`: the Activity result is reported as “Toxic”. On the same count and under the same terms, in the case of `C=C(C)[C@H](C)c1cc(/C=C/C(=O)c2ccc(O)cc2)c(OC)cc1O` [LICOCHALCONE E] it was “Toxic”.

A further data set deals with T1, Nuclear factor erythroid 2-related factor 2 (Homo sapiens). Put plainly: Activation of Nrf2 (unknown origin) expressed in human HepG2 cells at 10 uM incubated for 6 hrs by ARE-driven luciferase reporter gene assay relative to untreated control.
Details: not given
In kind it is cell-based.
Take `CC(C)=CCc1cc([C@@H]2CC(=O)c3cc(CC=C(C)C)c(O)cc3O2)ccc1O`: the fold change (FC) stood at 1.59.

As for `CC1(C)C=Cc2c(cc3occ(-c4ccc(O)cc4)c(=O)c3c2O)O1`, the fold change (FC) stood at 2.17. Regarding `C=CC(C)(C)c1cc(/C=C/C(=O)c2ccc(O)cc2)c(OC)c(O)c1O`, the fold change (FC) was determined as 3.09. Turning to `CC1(C)C=Cc2c(ccc3c2OC[C@@H](c2ccc(O)cc2O)C3)O1`, the fold change (FC) worked out at 2.58. Turning to `COC(C)(C)c1cc2cc3c(=O)cc(-c4ccc(O)c(CC=C(C)C)c4)oc3cc2o1`, the fold change (FC) came to 1.54. Regarding `CC1(C)C=Cc2cc(-c3coc4cc(O)ccc4c3=O)c(O)cc2O1`, the fold change (FC) was found to be 2.3. Consider `CC1(C)C=Cc2cc(/C=C/C(=O)c3ccc(O)cc3O)ccc2O1`, for which the fold change (FC) is 2.37. Consider `COc1c(/C=C/C(=O)c2ccc(O)cc2)cc(CC=C(C)C)c(O)c1O`, for which the fold change (FC) worked out at 3.39. Take `O=C1c2c(O)cc(O)cc2OCC1c1ccc(O)cc1` (stereo unspecified): the fold change (FC) stood at 1.72. As for `CC1(C)C=Cc2c(ccc3c(=O)c(-c4ccc(O)cc4O)coc23)O1`, the fold change (FC) amounted to 1.76. As for `CC(C)=CCc1cc(-c2cc(=O)c3cc4c(cc3o2)OC(C)(C)C=C4)ccc1O`, the fold change (FC) is 1.73. For the molecule `O=c1c(-c2ccc(O)cc2)coc2cc(O)cc(O)c12`, the fold change (FC) is 1.2. On to `CC1(CO)C=Cc2c(ccc(-c3coc4cc(O)ccc4c3=O)c2O)O1` (stereo unspecified), for which the fold change (FC) worked out at 2.76. On to `CC(C)=CCc1cc([C@@H]2CC(=O)c3ccc(O)cc3O2)cc2c1OC(C)(C)C=C2`, for which the fold change (FC) was found to be 1.84. Same read-out and setting: in the case of `COc1cc(-c2coc3cc(O)ccc3c2=O)ccc1O` it was 1.12; in that of `CC(C)=CCc1c(O)ccc(-c2coc3c(CC=C(C)C)c(O)cc(O)c3c2=O)c1O`, 1.98. In the case of `CC(C)=CCc1c(O)c(CC=C(C)C)c2oc(-c3ccc(O)cc3)cc(=O)c2c1O`, the fold change (FC) was 1.46. In the case of `CC(C)=CCc1c(O)ccc(C(=O)/C=C/c2ccc(O)c(O)c2)c1O`, the fold change (FC) is 1.56.

Take `CC1(C)C=Cc2c(O)ccc(-c3coc4cc(O)cc(O)c4c3=O)c2O1`: the fold change (FC) worked out at 1.7. With `COc1ccc(C2COc3c(cc(CC=C(C)C)c(O)c3O)C2=O)cc1` (stereo unspecified), the fold change (FC) turned out to be 1.06. With `CC1(C)C=Cc2c(O)ccc(C3COc4cc(O)cc(O)c4C3=O)c2O1` (stereo unspecified), the fold change (FC) is 1.42. In the case of `CC(C)=CCc1cc(-c2cc(=O)c3c(O)c(CC=C(C)C)c(O)cc3o2)ccc1O`, the fold change (FC) was determined as 2.98. Consider `CC(C)=CCc1c(O)ccc(-c2cc3ccc(O)cc3o2)c1O` [2'-O-DEMETHYLBIDWILLOL B], for which the fold change (FC) came to 4.34. Take `CC(C)=CCc1c(O)ccc2c1O[C@H](c1ccc3c(c1)C=CC(C)(C)O3)CC2=O`: the fold change (FC) turned out to be 1.4. In the case of `CC(C)=CCc1c(O)cc2occ(-c3cc(O)c4c(c3)C=CC(C)(C)O4)c(=O)c2c1O`, the fold change (FC) turned out to be 1.51.

As to `CC(C)=CCc1cc(-c2coc3c(CC=C(C)C)c(O)cc(O)c3c2=O)cc(O)c1O`, the fold change (FC) was 1.2. For the molecule `CC(C)=CCc1c(O)ccc(-c2coc3cc(O)ccc3c2=O)c1O`, the fold change (FC) is 2.15. Regarding `O=C1C[C@@H](c2ccc(O)cc2)Oc2cc(O)ccc21`, the fold change (FC) stood at 1.97.

For the molecule `CC(C)=CCc1c(O)c(CC=C(C)C)c2occ(-c3ccc(O)cc3)c(=O)c2c1O`, the fold change (FC) came to 1.21.

On to `COc1c(/C=C/C(=O)c2ccc(O)c(O)c2)ccc(O)c1CC=C(C)C`, for which the fold change (FC) was 2.07. The same measure, in the same setting: as for `O=C1C[C@@H](c2cc(O)cc(O)c2)Oc2cc(O)ccc21`, the figure is 1.54; as for `CC(C)=CCc1c(O)ccc2c1oc1c3ccc(O)cc3oc(=O)c21`, 1.81; as for `CC1(C)C=Cc2c(ccc(-c3cc4ccc(O)cc4o3)c2O)O1`, 1.08.

Consider `CC(C)=CCc1c(O)cc2occ(-c3ccc(O)cc3)c(=O)c2c1O`, for which the fold change (FC) turned out to be 1.49.

Regarding `CC(C)=CCc1c(O)ccc(-c2coc3cc(O)c(CC=C(C)C)c(O)c3c2=O)c1O`, the fold change (FC) amounted to 1.05.

For the molecule `COc1ccc2c(c1)OC[C@H]1c3ccc(O)cc3O[C@@H]21`, the fold change (FC) was 1.23. Turning to `CC1(C)C=Cc2c(ccc(-c3coc4cc(O)cc(O)c4c3=O)c2O)O1`, the fold change (FC) is 1.47. On to `CC(C)=CCc1c(O)cc(O)c2c1OC[C@@H](c1ccc3c(c1O)C=CC(C)(C)O3)C2=O`, for which the fold change (FC) worked out at 1.88. The same measure, in the same setting: as for `COc1ccc(-c2coc3c(O)c(O)c(CC=C(C)C)cc3c2=O)c(O)c1`, the figure is 1.42; as for `CC(C)=CCc1c(O)ccc([C@H]2COc3cc(O)c(CC=C(C)C)c(O)c3C2=O)c1O`, 1.98. Turning to `CC(C)=CCc1cc2c(=O)cc(-c3ccc4c(c3)C=CC(C)(C)O4)oc2cc1O`, the fold change (FC) turned out to be 1.03. Regarding `CC1(C)C=Cc2cc(-c3coc4cc(O)cc(O)c4c3=O)ccc2O1`, the fold change (FC) stood at 0.76. Still for that read-out and setting: in the case of `CC(C)=CCc1cc(/C=C/C(=O)c2ccc(O)c(CC=C(C)C)c2O)ccc1O` it was 1.22.

Take `COc1ccc(-c2coc3cc(O)ccc3c2=O)cc1`: the fold change (FC) turned out to be 2.65. On to `CC(C)=CCc1c(O)cc2occ(-c3ccc4c(c3O)C=CC(C)(C)O4)c(=O)c2c1O`, for which the fold change (FC) came to 1.37. On the same count and under the same terms, as for `CC(C)=CCc1c(O)cc(O)c2c(=O)c(-c3ccc4c(c3O)C=CC(C)(C)O4)coc12`, the figure is 1.56.

Consider `CC(C)=CCc1cc([C@@H]2CC(=O)c3c(O)cc(O)c(CC=C(C)C)c3O2)ccc1O`, for which the fold change (FC) came out at 1.41. On to `O=c1cc(-c2ccc(O)cc2)oc2cc(O)ccc12`, for which the fold change (FC) turned out to be 1.23.

With `C=C(C)[C@H](C)c1cc(/C=C/C(=O)c2ccc(O)cc2)c(OC)cc1O` [LICOCHALCONE E], the fold change (FC) is 5.94. Regarding `COc1c(/C=C/C(=O)c2ccc(O)cc2)ccc(O)c1CC=C(C)C`, the fold change (FC) came out at 1.42. `CC(C)=CCc1cc(/C=C/C(=O)c2ccc(O)cc2O)ccc1O`: the fold change (FC) was found to be 1.87. `CC1(C)[C@@H](O)CC[C@]2(C)[C@H]3CC=C4[C@@H]5C[C@@](C)(C(=O)O)CC[C@]5(C)CC[C@@]4(C)[C@]3(C)CC[C@@H]12`: the fold change (FC) amounted to 1.43. Consider `CC(C)=CCc1c(O)cc2c(c1O)C(=O)[C@H](c1ccc3c(c1O)C=CC(C)(C)O3)CO2`, for which the fold change (FC) stood at 2.33. In the case of `CC(C)=CCc1cc([C@@H]2CC(=O)c3ccc(O)cc3O2)ccc1O`, the fold change (FC) was 2.2.

As to `CC(C)=CCc1c(O)ccc(-c2coc3cc(O)cc(O)c3c2=O)c1O`, the fold change (FC) came out at 2.49.

`CC1(C)C=Cc2cc(-c3coc4cc(O)cc(O)c4c3=O)cc(O)c2O1`: the fold change (FC) turned out to be 1.13. The same measure, in the same setting: in the case of `CC(C)=CCc1cc2c(=O)cc(-c3ccc(O)cc3)oc2cc1O` it was 1.05; in that of `COc1cc(O)c(-c2coc3cc(O)ccc3c2=O)c(OC)c1CC=C(C)C`, 1.87.

With `COc1c(/C=C/C(=O)c2ccc(O)c(CC=C(C)C)c2)ccc(O)c1O` [LICOCHALCONE D], the fold change (FC) is 4.53. As to `CC1(C)C=Cc2c(ccc(-c3coc4cc(O)ccc4c3=O)c2O)O1`, the fold change (FC) stood at 1.4. On the same count and under the same terms, as for `O=C(/C=C/c1ccc(O)cc1)c1ccc(O)cc1O`, the figure is 4.67; as for `CC(C)=CCc1c(O)cc2occ(-c3ccc4c(c3)C=CC(C)(C)O4)c(=O)c2c1O`, 1.34; as for `CC(C)=CCc1cc(C2CC(=O)c3ccc(O)c(CC=C(C)C)c3O2)ccc1O` (stereo unspecified), 1.21. Take `CC(C)=CCc1c(O)ccc(C(=O)/C=C/c2ccc(O)cc2)c1O`: the fold change (FC) was 1.91.

Consider `COc1ccc(-c2coc3cc(O)ccc3c2=O)c(O)c1`, for which the fold change (FC) came to 2.28. Take `CC(C)=CCc1c(O)cc(O)c2c(=O)c(-c3ccc(O)cc3O)coc12`: the fold change (FC) worked out at 1.78. With `O=C1c2ccc(O)cc2OCC1c1ccc(O)c(O)c1` (stereo unspecified), the fold change (FC) amounted to 2.12. Consider `COc1cc2occ(-c3ccc(O)cc3O)c(=O)c2c(O)c1CC=C(C)C`, for which the fold change (FC) was determined as 2.36. For the molecule `O=C(/C=C/c1ccc(O)c(O)c1)c1ccc(O)c(O)c1`, the fold change (FC) was 1.85. For `CC1(C)C(=O)CC[C@]2(C)[C@H]3C(=O)C=C4[C@@H]5C[C@@](C)(C(=O)O)CC[C@]5(C)CC[C@@]4(C)[C@]3(C)[C@@H](O)C[C@@H]12`, the fold change (FC) came to 1.18. Regarding `CC(C)=CCc1cc(-c2coc3cc(O)cc(O)c3c2=O)cc(O)c1O`, the fold change (FC) came out at 1.91.

For the next data set the target is unchanged. Kind of data set: Activation of Nrf2 (unknown origin) expressed in human HepG2 cells at 2.5 to 10 uM incubated for 6 hrs by ARE-driven luciferase reporter gene assay. Format: cell-based.
Details: not given
As to `COc1c(/C=C/C(=O)c2ccc(O)cc2)cc(CC=C(C)C)c(O)c1O`, the Activity result was “Dose-dependent effect”.

Take `C=C(C)[C@H](C)c1cc(/C=C/C(=O)c2ccc(O)cc2)c(OC)cc1O` [LICOCHALCONE E]: the Activity entry is “Dose-dependent effect”.

The next data set relates to HepG2. Kind of data set: Cytotoxicity in human HepG2 cells expressing Nrf2/ARE-driven luciferase at 20 to 40 uM incubated for 6 hrs. The settings on record: hepg2, 6 h. Format: cell-based.
Take `C=CC(C)(C)c1cc(/C=C/C(=O)c2ccc(O)cc2)c(OC)c(O)c1O`: the Activity result is “Toxic”. The same measure, in the same setting: as for `CC(C)=CCc1c(O)ccc(-c2cc3ccc(O)cc3o2)c1O` [2'-O-DEMETHYLBIDWILLOL B], the entry is “Toxic”; as for `COc1c(/C=C/C(=O)c2ccc(O)c(CC=C(C)C)c2)ccc(O)c1O` [LICOCHALCONE D], “Toxic”.

The record behind these values is ChEMBL document CHEMBL4043194, “Nrf2 activators from Glycyrrhiza inflata and their hepatoprotective activities against CCl4-induced liver injury in mice” (Bioorg Med Chem, 2017).
